Source: patent US10899739B2, “Macrophage migration inhibitory factor inhibitors, and methods of making and using same” (YALE UNIVERSITY, priority 2017, dated 2021)
In brackets after ≈: the same amount, converted by molar mass. Several values for one entry are separate records, joined by “and”; a condition that tells them apart may be missing. Identical values can stand only once. Like-named read-outs stand apart in the source and are kept apart here. One block for each compound: values may come before it.

Columns and labels:
[1] = shake-flask; data for previously reported analogs of 1 and 2; cited from earlier work
[2] = target: T1, MIF (Homo sapiens, UniProt P14174); test: MIF tautomerase inhibition assay with 4-hydroxyphenylpyruvic acid (HPP) as substrate; assay type: biochemical
T1 construct: made in house
T1 sequence (P14174 2-115 limits assumed): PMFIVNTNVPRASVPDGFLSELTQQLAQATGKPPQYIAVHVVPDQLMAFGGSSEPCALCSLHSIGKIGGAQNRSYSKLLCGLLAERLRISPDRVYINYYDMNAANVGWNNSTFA

[3] = target: T1, MIF; test: fluorescence polarization binding assay
[4] = aqueous solubility, shake-flask procedure; assay type: physicochemical; conditions: aqueous buffer, thermodynamic from solid, Britton-Robinson buffer pH 6.5, read-out: Aqueous Solubility S
Procedure: For the assaying, inhibition constants Ki were determined as before using 4-hydroxyphenylpyruvic acid (HPP) as the substrate (Cisneros, et al., 2016, Bioorg. Med. Chem. Lett. 26:2764-2767). Inhibitory activity is monitored by measuring formation of the borate complex of the enol product at 305 nm using a Tecan Infinite F500 plate reader. Binding constants Kd were also obtained for the new compounds using a fluorescence polarization assay (Cisneros, et al., 2016, J. Am. Chem. Soc. 138:8630-8638). […] Saturated solutions in Britton-Robinson buffer (pH 6.5) are filtered (Acrodisc syringe, 0.2 μm pore) and analyzed by UV-vis spectroscopy (Agilent 8453).

Compound: OCCOc1ccc2nc(-c3cn(-c4ccc(O)cc4)nn3)ccc2c1 [Compound 1b]
Aqueous Solubility S [1]: 0.0026 mg/mL

Compound: O=C(O)COc1ccc2nc(-c3cn(-c4ccc(O)c(F)c4)nn3)ccc2c1 [Compound 2c]
Aqueous Solubility S [1]: 0.037 mg/mL

Compound: NCCOc1ccc2nc(-c3cn(-c4ccc(O)cc4)nn3)ccc2c1 [Compound 1c]
Aqueous Solubility S [1]: 0.0037 mg/mL

Ki ([2]; HPP substrate, new naphthyridinones and ISO-1, read-out: Experimental Inhibition Constants Ki): 30 µM and 30.1 µM | Ki ([2]; spread of nine measurements, read-out: Ki, results of repeated measurements): 21 to 39 µM | Kd ([3]; fluorescence polarization, new compounds and ISO-1, read-out: Binding Constants Kd): 23 µM and 23.1 µM | Kd ([3]; spread of four measurements, read-out: Kd, results of repeated measurements): 20 to 30 µM
Compound: methyl 3-(4-hydroxyphenyl)-4,5-dihydroisoxazole-5-carboxylate [ISO-1]

solubility [4]: 0.288 mg/mL (≈ 755 µM)
Compound: O=C(O)Cn1ccc2ccc(-c3cn(-c4ccc(O)c(F)c4)nn3)nc2c1=O [Compound 4b, 2-(2-(1-(3-fluoro-4-hydroxyphenyl)-1H-1,2,3-triazol-4-yl)-8-oxo-1,7-naphthyridin-7(8H)-yl)acetic acid]

Compound: O=C(O)COc1ccc2nc(-c3cn(-c4ccc(O)cc4)nn3)ccc2c1 [Compound 1f]
Aqueous Solubility S [1]: 0.365 mg/mL
